Results as given in patent publication US20240190855A1 (Relay Therapeutics, Inc., priority 2021, published 2024).
pIC50: −log10 of the molar value.

Each molecule was assayed against T1, CDK2/Cyclin E complex (Homo sapiens, UniProt P24941) (assay: CDK2/Cyclin E fluorescence-based microfluidic mobility shift assay (CDK2 Biochemical Caliper Assay)). Details: read-out: Biochemical CDK2/CyclinE Caliper IC50.
T1 construct: purchased Eurofins 14-475
Summary of the method: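 Wild-type CDK2/Cyclin E was preincubated with compound and ATP for 30 min at RT before the 5-FAM-QSPKKG peptide was added. Final concentrations were 0.1 nM enzyme, 2000 uM ATP, 1.5 uM peptide and 1% DMSO. After 20 hr at RT and EDTA stop, substrate conversion was read by microfluidic mobility shift over an 11-point, 3-fold dilution series.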

`COCc1cc(C(=O)Nc2cc([C@H]3C[C@@H](Oc4[nH]ncc4C(C)C)CO3)[nH]n2)n(C)n1` [Example 896] and `COCc1cc(C(=O)Nc2cc([C@H]3CC[C@@H](Oc4cn[nH]c4C(C)C)C3)[nH]n2)n(C)n1` [Example 629] cannot be ordered by pIC50: at least 7.00 for the first, 6.60 to 7.00 for the second.

`COCc1cc2c(Nc3cc([C@H]4C[C@@H](OC(=O)NC5(C)CCC5)CO4)[nH]n3)nccn2n1` [Example 674] and `COCc1cc2c(Nc3cc([C@H]4C[C@@H](OC(=O)NC5(C)COC5)CO4)[nH]n3)nccn2n1` [Example 700] cannot be ordered by pIC50: at least 7.00 for the first, at least 7.00 for the second.

`COCc1cc(C(=O)Nc2cc([C@H]3CC[C@H](c4nccc(C(C)C)n4)C3)[nH]n2)n(C)n1` (single isomer, unassigned) [Example 611] and `COCc1cc(C(=O)Nc2cc([C@H]3CC[C@H](c4ccc(C)cn4)C3)[nH]n2)n(C)n1` (single isomer, unassigned) [Example 599] fall in the same range of pIC50: 4.00 to 6.00 for the first, 4.00 to 6.00 for the second.

`CC1Cc2nc(Nc3cc(C4CCCC4)[nH]n3)ncc2C(C)O1` (centres unmarked) [Example 809] and `O=C1COc2ncnc(Nc3cc(C4CCCC4)[nH]n3)c2N1` [Example 831] fall in the same range of pIC50: 4.00 to 6.00 for the first, 4.00 to 6.00 for the second.

Compared with `Cc1cc(CC(=O)Nc2cc([C@@H]3CC[C@H](n4cc(C)[nH]c4=O)C3)[nH]n2)on1` (single isomer, unassigned) [Example 349], `Cc1cc(CC(=O)Nc2cc([C@@H]3CC[C@H](N4CC(C)(C)NC4=O)C3)[nH]n2)on1` (single isomer, unassigned) [Example 118] is higher in pIC50: 6.00 to 6.60 for the first, 6.60 to 7.00 for the second. The second is the more potent here.

`COCc1cc(C(=O)Nc2cc(N3CC(COC(=O)NC(C)C)C3)[nH]n2)n(C)n1` [Example 558] and `COCc1cc(C(=O)Nc2cc([C@H]3C[C@H](OC)[C@@H](OC(=O)NC(C)C)C3)[nH]n2)n(C)n1` (single isomer, unassigned) [Example 567] fall in the same range of pIC50: 4.00 to 6.00 for the first, 4.00 to 6.00 for the second.

`COCc1cc(C(=O)Nc2cc([C@H]3C[C@@H](COc4cnn(C)c4C(C)C)C3)[nH]n2)n(C)n1` [Example 631] and `COCc1cc(C(=O)Nc2cc([C@H]3C[C@@H](COc4nnccc4C(C)C)C3)[nH]n2)n(C)n1` [Example 429] cannot be ordered by pIC50: 6.60 to 7.00 for the first, at least 7.00 for the second.

`CC(C)c1ccnnc1O[C@H]1C[C@@H](c2cc(Nc3nccc4ncsc34)n[nH]2)C1` [Example 435] and `COCc1cc(C(=O)Nc2cc([C@@H]3CC[C@H](Oc4nnccc4C(C)C)C3)[nH]n2)n(C)n1` (single isomer, unassigned) [Example 411] cannot be ordered by pIC50: at least 7.00 for the first, at least 7.00 for the second.

`Cc1cc(Nc2cc(C3CCCC3)[nH]n2)n2nc(C)cc2n1` [Example 802] and `Cc1nc(Nc2cc(C3CCCC3)[nH]n2)cc(-c2ccco2)n1` [Example 853] fall in the same range of pIC50: 4.00 to 6.00 for the first, 4.00 to 6.00 for the second.

`COCc1cc2c(Nc3cc([C@H]4C[C@@H](OC(=O)N[C@H](C)CC(F)(F)F)CO4)[nH]n3)nccn2n1` [Example 638] and `COCc1cc2c(Nc3cc([C@H]4C[C@@H](OC(=O)N[C@@H](C)C(C)C)CO4)[nH]n3)nccn2n1` [Example 665] cannot be ordered by pIC50: at least 7.00 for the first, at least 7.00 for the second.

`CO[C@@H](c1cc(C(=O)Nc2cc([C@H]3C[C@@H](OC(=O)NC4(C)CC4)CO3)[nH]n2)n(C)n1)C(F)(F)F` (single isomer, unassigned) [Example 890] and `Cn1nc(COC(F)(F)F)cc1C(=O)Nc1cc([C@@H]2C[C@H](OC(=O)NC3(C)CC3)CO2)[nH]n1` [Example 773] cannot be ordered by pIC50: at least 7.00 for the first, at least 7.00 for the second.

First: COCc1cc(C(=O)Nc2cc([C@H]3CC[C@@H](Oc4cccnc4C)C3)[nH]n2)n(C)n1 (single isomer, unassigned) [Example 385]
Second: COCc1cc(C(=O)Nc2cc([C@H]3CC[C@@H](Oc4nccnc4C)C3)[nH]n2)n(C)n1 (single isomer, unassigned) [Example 494]
The pIC50 of the first is lower: 4.00 to 6.00 for the first, 6.00 to 6.60 for the second. The second is the more potent here.

`COCc1cc2c(Nc3cc([C@H]4C[C@@H](COc5nncn5C(C)(C)C)C4)[nH]n3)nccn2n1` [Example 636] and `CC(C)(C)n1cnnc1OC[C@H]1C[C@@H](c2cc(Nc3nccn4nccc34)n[nH]2)C1` [Example 637] cannot be ordered by pIC50: at least 7.00 for the first, at least 7.00 for the second.

First: Cc1cc(CC(=O)Nc2cc([C@H]3C[C@@H](CC(=O)NC(C)C)C3)[nH]n2)on1 [Example 347]
Second: Cc1cc(CC(=O)Nc2cc([C@H]3CC[C@H](Cc4nncn4C(C)C)C3)[nH]n2)on1 (single isomer, unassigned) [Example 373]
The pIC50 of the first is lower: 4.00 to 6.00 for the first, 6.60 to 7.00 for the second.

`CC(C)(C)n1cnnc1O[C@H]1CO[C@@H](c2cc(Nc3nccn4nccc34)n[nH]2)C1` [Example 774] and `CC1(NC(=O)O[C@H]2CO[C@@H](c3cc(Nc4nccn5nccc45)n[nH]3)C2)CC1` [Example 781] cannot be ordered by pIC50: at least 7.00 for the first, at least 7.00 for the second.

`COCc1cc2c(Nc3cc([C@H]4C[C@@H](OC(=O)N[C@]5(C)CC5(F)F)CO4)[nH]n3)nccn2n1` (single isomer, unassigned) [Example 729] and `COCc1cc2c(Nc3cc([C@H]4C[C@@H](OC(=O)N[C@@H]5C[C@H]5C)CO4)[nH]n3)nccn2n1` [Example 697] cannot be ordered by pIC50: at least 7.00 for the first, at least 7.00 for the second.

`Cc1cc(CC(=O)Nc2cc([C@H]3CC[C@@H](OC(=O)N(C(C)C)C(C)C)C3)n[nH]2)on1` [Example 147] and `Cc1cc(CC(=O)Nc2ncc([C@@H]3CC[C@H](OC(=O)NC(C)C)C3)s2)on1` (single isomer, unassigned) [Example 443] cannot be ordered by pIC50: at least 7.00 for the first, at least 7.00 for the second.

`Cn1nc(COC(F)(F)F)cc1C(=O)Nc1ncc([C@@H]2C[C@H](OC(=O)NC3(C)CC3)CO2)s1` (single isomer, unassigned) [Example 899] and `CC(C)NC(=O)O[C@H]1CO[C@@H](c2cc(NC(=O)c3cc(COC(F)(F)F)nn3C)n[nH]2)C1` [Example 706] cannot be ordered by pIC50: at least 7.00 for the first, at least 7.00 for the second.

First: COCc1cc(C(=O)Nc2cc([C@@H]3CC[C@H](Oc4ccccc4)C3)[nH]n2)n(C)n1 (single isomer, unassigned) [Example 365]
Second: COCc1cc(C(=O)Nc2cc([C@H]3CC[C@@H](Oc4ncccc4C(C)C)C3)[nH]n2)n(C)n1 (single isomer, unassigned) [Example 506]
The pIC50 of the first is lower: 6.00 to 6.60 for the first, at least 7.00 for the second.

First: CC1(C)NC(=O)c2ccc(Nc3cc([C@H]4CC[C@@H](Oc5cccnc5)C4)[nH]n3)cc21 (single isomer, unassigned) [Example 565]
Second: Cc1ncccc1O[C@@H]1CC[C@H](c2cc(Nc3nccn4nccc34)n[nH]2)C1 (single isomer, unassigned) [Example 484]
The pIC50 of the first is higher: at least 7.00 for the first, 6.00 to 6.60 for the second. The first is the more potent here.

First: COCc1cc2c(Nc3cc([C@H]4C[C@@H](Oc5nn(C)cc5C(C)C)CO4)[nH]n3)nccn2n1 [Example 790]
Second: COCc1cc2c(Nc3cc([C@H]4C[C@@H](Oc5[nH]ncc5C(C)(C)C)CO4)[nH]n3)nccn2n1 [Example 768]
The pIC50 of the first is lower: 4.00 to 6.00 for the first, at least 7.00 for the second. The second is the more potent here.

`Cc1cc(C(F)(F)F)c(Nc2cc(C3CCCC3)[nH]n2)nn1` [Example 855] and `COc1ccc2cnnc(Nc3cc(C4CCCC4)[nH]n3)c2c1` [Example 878] fall in the same range of pIC50: 4.00 to 6.00 for the first, 4.00 to 6.00 for the second.

`COCc1cc(C(=O)Nc2cc([C@H]3CC[C@@H](Oc4cnccc4C4CC4)C3)[nH]n2)n(C)n1` (single isomer, unassigned) [Example 393] and `COCc1cc(C(=O)Nc2cc([C@@H]3CC[C@H](Oc4cnccc4C4CC4)C3)[nH]n2)n(C)n1` (single isomer, unassigned) [Example 394] cannot be ordered by pIC50: at least 7.00 for the first, 6.60 to 7.00 for the second.

First: Cc1cc(CC(=O)Nc2cc([C@@H]3C[C@H](Oc4nnccc4C(C)C)CO3)[nH]n2)on1 [Example 407]
Second: Cc1cc(CC(=O)Nc2cc([C@H]3C[C@H](OC(=O)NC4(C)CC4)CO3)[nH]n2)on1 (single isomer, unassigned) [Example 108]
The pIC50 of the first is higher: at least 7.00 for the first, 4.00 to 6.00 for the second. The first is the more potent here.

`CCc1ccnnc1O[C@H]1CC[C@@H](c2cc(NC(=O)c3cc(COC)nn3C)n[nH]2)C1` (single isomer, unassigned) [Example 510] and `COCc1cc(C(=O)Nc2cc([C@@H]3CC[C@H](Oc4nnccc4C4CCC4)C3)[nH]n2)n(C)n1` (single isomer, unassigned) [Example 551] cannot be ordered by pIC50: at least 7.00 for the first, at least 7.00 for the second.

First: Cc1cc(CC(=O)Nc2cc([C@@H]3CC[C@H](Oc4cccnc4C)C3)[nH]n2)on1 (single isomer, unassigned) [Example 358]
Second: Cc1cc(CC(=O)Nc2cc([C@H]3CC[C@@H](Oc4nscc4C4CC4)C3)[nH]n2)on1 (single isomer, unassigned) [Example 127]
The pIC50 of the first is lower: 6.00 to 6.60 for the first, at least 7.00 for the second. The second is the more potent here.

`Cc1cc(CC(=O)Nc2cn(C3CCCC3)cn2)on1` [Example 60] and `Cc1cc(CC(=O)Nc2cc([C@H]3CC[C@@H](NC(=O)c4ccccc4)C3)[nH]n2)on1` (single isomer, unassigned) [Example 131] fall in the same range of pIC50: 4.00 to 6.00 for the first, 4.00 to 6.00 for the second.

First: CC(C)c1nc(Nc2cc(C3CCCC3)[nH]n2)c2cc[nH]c2n1 [Example 864]
Second: Cc1c(F)c(Nc2cc(C3CCCC3)[nH]n2)nc2ccccc12 [Example 863]
The pIC50 of the first is higher: 6.00 to 6.60 for the first, 4.00 to 6.00 for the second. The first is the more potent here.

First: Cc1cc(CC(=O)Nc2cc(-c3csc4cncnc34)[nH]n2)on1 [Example 240]
Second: CC(C)NC(=O)O[C@@H]1CC[C@H](c2cc(Nc3ncnc4ncccc34)n[nH]2)C1 (single isomer, unassigned) [Example 400]
The pIC50 of the first is lower: 4.00 to 6.00 for the first, at least 7.00 for the second.

`COCc1cc(C(=O)Nc2cc([C@@H]3C[C@H](OC)[C@@H](OC(=O)NC(C)C)C3)[nH]n2)n(C)n1` (single isomer, unassigned) [Example 569] and `COCc1cc(C(=O)Nc2cc([C@H]3CC[C@](C)(CC(=O)NC(C)C)C3)[nH]n2)n(C)n1` (single isomer, unassigned) [Example 448] fall in the same range of pIC50: 4.00 to 6.00 for the first, 4.00 to 6.00 for the second.

`Cc1nc(Nc2cc(C3CCCC3)[nH]n2)c(C#N)c2c1CCC2` [Example 872] and `c1cn2nc(C3CC3)cc2c(Nc2cc(C3CCCC3)[nH]n2)n1` [Example 870] fall in the same range of pIC50: 4.00 to 6.00 for the first, 4.00 to 6.00 for the second.

First: CCOCc1cc2c(Nc3cc([C@H]4C[C@@H](OC(=O)NC(C)C)CO4)[nH]n3)nccn2n1 [Example 653]
Second: Clc1ccn2c(Nc3cc(C4CCCC4)[nH]n3)nnc2c1 [Example 850]
The pIC50 of the first is higher: at least 7.00 for the first, 4.00 to 6.00 for the second. The first is the more potent here.

For `CS(=O)(=O)N1CCC(Nc2cc(C3CCCC3)[nH]n2)CC1` [Example 857], the pIC50 was 4.00 to 6.00.
